Experimental data: the supplement of paper PMC10307832

Legend:
Assay in all cases: relative viability (nuclei count vs DMSO), 5 days (fraction); higher = more cells survive
Dovitinib + Foretinib = compound: CN1CCN(c2ccc3nc(-c4c(N)c5c(F)cccc5[nH]c4=O)[nH]c3c2)CC1 [Dovitinib] + COc1cc2c(Oc3ccc(NC(=O)C4(C(=O)Nc5ccc(F)cc5)CC4)cc3F)ccnc2cc1OCCCN1CCOCC1 [Foretinib] (partner 0.25 µM)
Summary of the method: (§1)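 Cells from lung cancer lines were seeded into 1536-well plates and, one day later, dosed by pin tool. Treatments were either a single drug or a fixed dose of an anchor drug with five library-drug doses (not always all listed) in √10 steps. After 5 days, nuclei were stained in a one-step fixation (final 0.05% Triton X-100, 1% formaldehyde, 1 ug/ml Hoechst) and counted on 4× images, and relative viability is the treated-to-vehicle nuclei ratio, as the median of duplicate plates.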

Dovitinib + Luminespib = compound: CN1CCN(c2ccc3nc(-c4c(N)c5c(F)cccc5[nH]c4=O)[nH]c3c2)CC1 [Dovitinib] + CCNC(=O)c1noc(-c2cc(C(C)C)c(O)cc2O)c1-c1ccc(CN2CCOCC2)cc1 [Luminespib] (partner 0.01 µM)
Summary of the method: as §1

Dovitinib + Tozasertib = compound: CN1CCN(c2ccc3nc(-c4c(N)c5c(F)cccc5[nH]c4=O)[nH]c3c2)CC1 [Dovitinib] + Cc1cc(Nc2cc(N3CCN(C)CC3)nc(Sc3ccc(NC(=O)C4CC4)cc3)n2)n[nH]1 [Tozasertib] (partner 0.1 µM)
Summary of the method: as §1

Dovitinib + AZD7762 = compound: CN1CCN(c2ccc3nc(-c4c(N)c5c(F)cccc5[nH]c4=O)[nH]c3c2)CC1 [Dovitinib] + NC(=O)Nc1cc(-c2cccc(F)c2)sc1C(=O)N[C@H]1CCCNC1 [AZD7762] (partner 0.2 µM)
Summary of the method: as §1

Cell Line | relative viability (Dovitinib + Foretinib; first compound 0.02 µM) | relative viability (Dovitinib + Foretinib; first compound 0.06325 µM) | relative viability (Dovitinib + Foretinib; first compound 0.2 µM) | relative viability (Dovitinib + Foretinib; first compound 0.6325 µM) | relative viability (Dovitinib + Foretinib; first compound 2 µM) | relative viability (Dovitinib + Luminespib; first compound 0.02 µM) | relative viability (Dovitinib + Luminespib; first compound 0.06325 µM) | relative viability (Dovitinib + Luminespib; first compound 0.2 µM) | relative viability (Dovitinib + Luminespib; first compound 0.6325 µM) | relative viability (Dovitinib + Luminespib; first compound 2 µM) | relative viability (Dovitinib + Tozasertib; first compound 0.02 µM) | relative viability (Dovitinib + Tozasertib; first compound 0.06325 µM) | relative viability (Dovitinib + Tozasertib; first compound 0.2 µM) | relative viability (Dovitinib + Tozasertib; first compound 0.6325 µM) | relative viability (Dovitinib + Tozasertib; first compound 2 µM) | relative viability (Dovitinib + AZD7762; first compound 0.02 µM) | relative viability (Dovitinib + AZD7762; first compound 0.06325 µM) | relative viability (Dovitinib + AZD7762; first compound 0.2 µM) | relative viability (Dovitinib + AZD7762; first compound 0.6325 µM) | relative viability (Dovitinib + AZD7762; first compound 2 µM)
A549 | 0.943 | 0.919 | 0.954 | 0.985 | 0.975 |  |  |  |  |  |  |  |  |  |  |  |  |  |  | 
COR-L23 | 0.93 | 1 | 0.99 | 0.952 | 1.04 | 0.581 | 0.788 | 0.695 | 0.664 | 0.72 | 0.207 | 0.191 | 0.194 | 0.172 | 0.215 |  |  |  |  | 
COR-L 105 | 0.921 | 0.993 | 1.2 | 1.14 | 1.31 | 0.77 | 0.84 | 0.78 | 0.82 | 0.81 | 0.345 | 0.299 | 0.365 | 0.394 | 0.168 |  |  |  |  | 
Calu-6 | 0.925 | 0.861 | 0.853 | 0.874 | 0.912 |  |  |  |  |  |  |  |  |  |  |  |  |  |  | 
EBC-1 | 0.105 | 0.0996 | 0.103 | 0.0933 | 0.115 |  |  |  |  |  |  |  |  |  |  |  |  |  |  | 
HCC-44 |  |  |  |  |  | 0.981 | 0.976 | 1.12 | 1.11 | 1.02 | 0.724 | 1.03 | 0.99 | 0.884 | 0.938 | 0.979 | 0.97 | 1.03 | 0.955 | 0.975
HCC-78 | 0.632 | 0.528 | 0.535 | 0.599 | 0.623 |  |  |  |  |  | 0.712 | 0.404 | 0.544 | 0.464 | 0.576 | 0.71 | 0.481 | 0.674 | 0.699 | 0.489
HCC-366 | 0.958 | 0.901 | 0.947 | 0.925 | 0.883 |  |  |  |  |  | 0.0642 | 0.143 | 0.14 | 0.127 | 0.111 | 0.155 | 0.301 | 0.297 | 0.239 | 0.357
IA-LM | 1.2 | 1.19 | 1.05 | 1.24 | 1.12 |  |  |  |  |  |  |  |  |  |  |  |  |  |  | 
NCI-H520 | 0.698 | 0.894 | 0.818 | 0.733 | 0.698 | 0.218 | 0.219 | 0.192 | 0.201 | 0.212 | 0.453 | 0.486 | 0.409 | 0.431 | 0.427 |  |  |  |  | 
NCI-H661 | 1.05 | 1 | 1.08 | 1.07 | 1.12 | 0.87 | 0.93 | 0.924 | 0.936 | 0.975 | 0.347 | 0.355 | 0.36 | 0.361 | 0.38 |  |  |  |  | 
NCI-H1299 | 1.11 | 1.1 | 1.11 | 1.11 | 1.06 |  |  |  |  |  |  |  |  |  |  |  |  |  |  | 
NCI-H1563 | 0.983 | 0.977 | 0.975 | 0.898 | 0.953 | 0.567 | 0.481 | 0.615 | 0.509 | 0.543 |  |  |  |  |  |  |  |  |  | 
NCI-H1648 |  |  |  |  |  |  |  |  |  |  | 0.491 | 0.532 | 0.562 | 0.402 | 0.564 | 0.497 | 0.717 | 0.661 | 0.701 | 0.634
NCI-H1650 | 1.44 | 1.21 | 0.998 | 0.819 | 0.972 | 0.199 | 0.192 | 0.199 | 0.189 | 0.19 | 0.394 | 0.349 | 0.424 | 0.325 | 0.361 |  |  |  |  | 
NCI-H1703 | 0.326 | 0.332 | 0.445 | 0.355 | 0.328 |  |  |  |  |  |  |  |  |  |  | 0.132 | 0.0996 | 0.125 | 0.114 | 0.146
NCI-H1792 |  |  |  |  |  | 0.481 | 0.332 | 0.516 | 0.645 | 0.487 |  |  |  |  |  | 0.559 | 0.761 | 0.676 | 0.796 | 0.559
NCI-H2009 | 1.16 | 1.25 | 1.22 | 1.15 | 1.27 | 0.974 | 1.11 | 0.981 | 0.973 | 1.13 | 0.698 | 0.761 | 0.782 | 0.683 | 0.886 |  |  |  |  | 
NCI-H2023 | 0.707 | 0.935 | 0.788 | 0.868 | 0.857 | 0.853 | 0.627 | 0.809 | 0.897 | 0.833 | 0.324 | 0.334 | 0.384 | 0.261 | 0.313 |  |  |  |  | 
NCI-H2228 | 0.9 | 0.832 | 0.928 | 1.08 | 0.915 | 0.104 | 0.151 | 0.161 | 0.141 | 0.172 | 0.249 | 0.281 | 0.207 | 0.216 | 0.265 |  |  |  |  | 
SK-LU-1 | 0.875 | 0.904 | 0.789 | 0.773 | 0.845 | 0.203 | 0.19 | 0.204 | 0.18 | 0.198 | 0.305 | 0.375 | 0.33 | 0.325 | 0.409 |  |  |  |  | 
SK-MES-1 | 0.895 | 0.993 | 0.927 | 0.86 | 0.919 | 0.653 | 0.949 | 0.785 | 0.661 | 0.887 | 0.861 | 0.934 | 0.893 | 0.835 | 0.983 |  |  |  |  | 
SW 1573 | 0.837 | 0.913 | 0.877 | 0.88 | 0.885 | 0.264 | 0.214 | 0.275 | 0.525 | 0.29 | 0.183 | 0.175 | 0.163 | 0.144 | 0.164 |  |  |  |  | 
UMC-11 | 1.05 | 1.04 | 1.01 | 1 | 1.05 | 0.964 | 1.03 | 0.979 | 1 | 0.996 | 0.213 | 0.201 | 0.203 | 0.199 | 0.22 |  |  |  |  | 
